Measured values as given in patent publication US10190093B2, “Artificial oocyte activation” (The Curators of the University of Missouri, priority 2013, dated 2019).
“Also recorded” adds a separate entry of the source.

Columns and labels:
[1] = tested on: SCNT embryos transferred into surrogate gilt; assay: Embryo transfer, in vivo development competence of SCNT embryos
Description: To address in vivo competency of SCNT embryos activated by utilizing TPEN, a series of embryo transfers were performed. For the study, at day 1, the SCNT-derived embryos were surgically transferred into the ampullary-isthmic junction of a surrogate gilt at 0 or 1 days after observed estrus. At the end of gestation periods, piglets were recovered through C-section.
Six embryo transfers were performed for the study and two surrogates carried their pregnancy to term, each resulting in two healthy piglets (Table 6). One of the term development was from SCNT embryos that were not treated with a HDAC inhibitor, Scriptaid.

MII oocytes = assay: Intracellular calcium measurement (fura-2); format: cell-based, pig; details: oocytes exposed to TPEN 5, 10, and 200 μM
Description: The zonae pellucidae were removed after maturation and zona-free oocytes were loaded with the Ca^2+ indicator dye, fura-2. For this purpose, they were incubated in the presence of […] of the acetoxymethyl ester form of the dye and 0.02% pluronic F-127 for 40-50 min (both from Invitrogen). The dye loaded oocytes were transferred into a chamber with a cover-glass bottom and the chamber was then placed on the heated stage of an inverted microscope. Changes in the intracellular free Ca^2+ concentration were recorded using InCytIm2, a dual-wavelength fluorescence imaging system (Intracellular Imaging, Inc.; Cincinnati, Ohio). During measurements the emitted fluorescence was detected at 510 nm after exciting the dye alternately at 340 and 380 nm. The ratio of the two emitted fluorescence intensities was calculated and the data are presented as fluorescence ratio values. Ratios of 1.0 and 5.0 correspond to about 100 and 1,200 nM Ca^2+, respectively. In each treatment group the measurements were repeated at least 5 times using different oocytes.

[2] = tested on: Metaphase II porcine oocytes; assay: Parthenogenetic activation of porcine oocytes by TPEN alone; format: cell-based, pig
Description: Oocytes were obtained from either pre-pubertal gilt ovaries from an abattoir (Farmland Foods Inc., Milan, Mo.), or sow-derived oocytes that were purchased from Applied Reproductive Technology (Madison, Wis.). Immature oocytes from gilt ovaries were aspirated from medium size (3-6 mm) follicles by using an 18 gauge hypodermic needle attached to a 10 mL syringe. Oocytes with evenly dark cytoplasm and intact surrounding cumulus cells were then selected for maturation. Around 50 cumulus oocyte complexes were place in a well containing 500 μL of maturation medium, TCM 199 (Invitrogen, Grand Island, N.Y.) with 3.05 mM glucose, 0.91 mM sodium pyruvate, 0.57 mM cysteine, 10 ng/mL epidermal growth factor (EGF), 0.5 mg/mL luteinizing hormone (LH), 0.5 mg/mL follicle stimulating hormone (FSH), 10 ng/mL gentamicin (APP Pharm, Schaumburg, Ill.), and 0.1% polyvinyl alcohol (PVA) for 42-44 hr at 38.5° C., 5% CO2, in humidified air. The oocytes from sows were shipped overnight in maturation medium (TCM199 with 2.9 mM Hepes, […], 10 ng/mL EGF, 0.5 mg/mL p-FSH, 0.91 mM pyruvate, 0.5 mM cysteine, 10% porcine follicular fluid, 25 ng/mL gentamicin) and transferred into fresh medium at 24 hr. At the end of the maturation, the surrounding cumulus cells were removed from the oocytes by vortexing for 3 min in the presence of 0.1% hyaluronidase. Oocytes with a visible polar body were selected in manipulation medium (TCM199 with 0.6 mM NaHCO3, 2.9 mM Hepes, 30 mM NaCl, 10 ng/mL gentamicin, and 3 mg/mL bovine serum albumin [BSA]; and osmolarity of 305) and then used for the experiments. Different oocyte activation methods were used for the experiments. As conventional activation methods, either electrical or chemical activation was used. For electrical activation, mature oocytes were activated in activation medium (0.3 M mannitol, 1.0 mM CaCl2, 0.1 mM MgCl2, and 0.5 mM Hepes) by two direct-current (DC) pulses (1-sec interval) at 1.2 kV/cm for 30 μsec (using BTX Electro Cell Manipulator, Harvard Apparatus, Holliston, Mass.). […] For TPEN mediated activation, mature oocytes were incubated in TL-Hepes media with various concentrations of TPEN for different durations. […] At the end of the culture, where applicable, the frequency of cleaved embryos and blastocysts, and total cell number in the blastocysts were recorded. Hoechst 33342 (1.2 mg/mL) was used to stain nuclei and the embryos were then evaluated by epi-fluorescence microscopy. Metaphase II porcine oocytes were incubated in vitro with TPEN to determine if the concentration/duration of 100 μM of TPEN for 45 min, as described in the mouse study by Suzuki, et al. (Development 137, 2659-2669, 2010) had any effect on pig oocytes. […] A wide range of TPEN concentrations/durations was tested to identify an optimum concentration of TPEN that can activate pig oocytes; 100 μM, 200 μM, and 250 μM and 30 min-2.5 hours of duration were tested (Table 1). Optimum embryo development was achieved by using 200 μM TPEN for 30 min.

c1ccc(CN(CCN(Cc2ccccn2)Cc2ccccn2)Cc2ccccn2)nc1 [TPEN, N,N,N′,N′-tetrakis(2-pyridylmethyl)ethane-1,2-diamine]
Result of embryo transfer ([1]; SCNT + 5 μM TPEN, 30 min + Scriptaid): 2 normal piglets were and Cycled | Result of embryo transfer ([1]; SCNT + 5 μM TPEN, 30 min, no Scriptaid): 2 normal piglets were and Cycled | Result of embryo transfer ([1]; SCNT + 10 μM TPEN, 10 min + Scriptaid): Cycled | toxicity to SCNT embryos, full term development ([1]; embryo transfers of TPEN treated SCNT embryos): not toxic to the SCNT embryos | intracellular Ca2+ increase (MII oocytes): does not induce a Ca^2+ increase; also recorded: no Ca^2+ increase was detected | Frequency of forming blastocysts on day 7 ([2]; 100 μM of TPEN for 45 min): 13% | blastocyst formation on day 5 ([2]; 100 μM of TPEN for 45 min): No blastocyst formation was observed | expanded blastocysts on day 7 ([2]; 100 μM of TPEN for 45 min): no expanded blastocysts | toxic effect on embryo development ([2]; 250 μM TPEN over 2.5 hours): toxic effect | % blastocysts ([2]; TPEN alone, 100 μM, 2 hr): 12.0% | % blastocysts ([2]; TPEN alone, 200 μM, 30 min): 23.0% | total number of nuclei in blastocysts ([2]; TPEN alone, 200 μM, 30 min): 27.2±1.92 | % blastocysts ([2]; TPEN alone, 200 μM, 1 hr): 20.0% | % blastocysts ([2]; TPEN alone, 250 μM, 2 hr): 10.0%
